Molecular target: Btk enzyme (His-Btk) (Homo sapiens (Human), UniProt Q06187)
Test: Btk enzyme activity, IMAP fluorescence polarization assay
Conditions: 60 min pre-incubation, 5 μM ATP, bin bounds in nM

Btk enzyme (His-Btk), sequence (Q06187 whole entry): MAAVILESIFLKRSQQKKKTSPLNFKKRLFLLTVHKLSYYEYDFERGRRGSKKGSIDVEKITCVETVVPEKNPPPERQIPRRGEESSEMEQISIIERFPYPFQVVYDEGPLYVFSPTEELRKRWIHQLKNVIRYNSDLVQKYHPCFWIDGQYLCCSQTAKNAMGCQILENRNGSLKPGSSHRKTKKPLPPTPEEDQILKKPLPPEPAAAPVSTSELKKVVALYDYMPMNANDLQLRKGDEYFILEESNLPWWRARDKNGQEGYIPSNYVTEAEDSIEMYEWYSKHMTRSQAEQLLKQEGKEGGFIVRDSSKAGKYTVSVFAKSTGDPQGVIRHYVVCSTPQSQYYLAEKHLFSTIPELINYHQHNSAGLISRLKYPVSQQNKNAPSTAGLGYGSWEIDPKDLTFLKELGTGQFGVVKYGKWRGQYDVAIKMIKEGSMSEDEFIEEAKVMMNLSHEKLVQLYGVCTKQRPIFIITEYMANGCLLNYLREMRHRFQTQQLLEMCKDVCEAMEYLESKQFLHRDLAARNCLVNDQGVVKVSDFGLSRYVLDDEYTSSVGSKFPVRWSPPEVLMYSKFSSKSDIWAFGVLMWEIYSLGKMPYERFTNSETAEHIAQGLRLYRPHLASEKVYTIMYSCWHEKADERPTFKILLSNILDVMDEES

Row | SMILES | EC50 Btk activity values [nM]
1 | CCCc1ccnc(NC(=O)c2ccc(-c3nc([C@@H]4CCCCN4C(=O)/C=C/COC)n4ccnc(N)c34)cc2F)c1 [Example 114, (S,E)-4-(8-amino-3-(1-(4-methoxybut-2-enoyl)piperidin-2-yl)imidazo[1,5-a]pyrazin-1-yl)-2-fluoro-N-(4-propylpyridin-2-yl)benzamide] | <100
2 | CC#CC(=O)N1CCCC[C@H]1c1nc(-c2ccc(C(=O)Nc3nccc(C)n3)cc2)c2c(N)nccn12 [Example 89, (S)-4-(8-amino-3-(1-but-2-ynoylpiperidin-2-yl)imidazo[1,5-a]pyrazin-1-yl)-N-(4-methylpyrimidin-2-yl)benzamide] | <100
3 | Nc1nccn2c([C@@H]3CCCN3C(=O)/C=C/CN3CCCC3)nc(-c3ccc(C(=O)Nc4ccccn4)cc3)c12 [Example 2, (S,E)-4-(8-amino-3-(1-(4-(pyrrolidin-1-yl)but-2-enoyl)pyrrolidin-2-yl)imidazo[1,5-a]pyrazin-1-yl)-N-(pyridin-2-yl)benzamide] | <100
4 | CC#CC(=O)N(C)[C@@H](C)c1nc(-c2ccc(C(=O)Nc3cc(CCC)ccn3)cc2)c2c(N)nccn12 [Example 113, (S)-4-(8-amino-3-(1-(N-methylbut-2-ynamido)ethyl)imidazo[1,5-a]pyrazin-1-yl)-N-(4-propylpyridin-2-yl)benzamide] | <100
5 | COc1cc(-c2nc([C@@H]3CCCN3C(=O)c3ccnc(Cl)n3)n3ccnc(N)c23)ccc1C(=O)Nc1ccccn1 [Example 83, (S)-4-(8-amino-3-(1-(2-chloropyrimidine-4-carbonyl)pyrrolidin-2-yl)imidazo[1,5-a]pyrazin-1-yl)-2-methoxy-N-(pyridin-2-yl)benzamide] | <100
6 | COC/C=C/C(=O)N1CCC[C@H]1c1nc(-c2ccc(C(=O)Nc3cc(C)ccn3)cc2)c2c(N)nccn12 [Example 57, (S,E)-4-(8-amino-3-(1-(4-methoxybut-2-enoyl)pyrrolidin-2-yl)imidazo[1,5-a]pyrazin-1-yl)-N-(4-methylpyridin-2-yl)benzamide] | <100
7 | CC#CC(=O)N1CCC[C@H]1c1nc(-c2ccc(C(=O)Nc3cc(N4CCCC4)ccn3)cc2)c2c(N)nccn12 [Example 96, (S)-4-(8-amino-3-(1-but-2-ynoylpyrrolidin-2-yl)imidazo[1,5-a]pyrazin-1-yl)-N-(4-(pyrrolidin-1-yl)pyridin-2-yl)benzamide] | <100
8 | CC#CC(=O)NCc1nc(-c2ccc(C(=O)Nc3ccccn3)cc2)c2c(N)nccn12 [Example 112, 4-(8-amino-3-(but-2-ynamidomethyl)imidazo[1,5-a]pyrazin-1-yl)-N-(pyridin-2-yl)benzamide] | <100
9 | COC/C=C/C(=O)N1CCC[C@H]1c1nc(-c2ccc(C(=O)Nc3cc(C#N)ccn3)cc2)c2c(N)nccn12 [Example 98, (S,E)-4-(8-amino-3-(1-(4-methoxybut-2-enoyl)pyrrolidin-2-yl)imidazo[1,5-a]pyrazin-1-yl)-N-(4-cyanopyridin-2-yl)benzamide] | <100
10 | CC#CC(=O)N1CCCC[C@H]1c1nc(-c2ccc(C(=O)Nc3ccon3)cc2)c2c(N)nccn12 [Example 24, (S)-4-(8-Amino-3-(1-but-2-ynoylpiperidin-2-yl)imidazo[1,5-a]pyrazin-1-yl)-N-(isoxazol-3-yl)benzamide] | <100
11 | Nc1nccn2c([C@@H]3CCCN3C(=O)c3ccnc(Cl)n3)nc(-c3ccc(C(=O)Nc4cc(C(F)(F)F)ccn4)cc3)c12 [Example 119, (S)-4-(8-amino-3-(1-(2-chloropyrimidine-4-carbonyl)pyrrolidin-2-yl)imidazo[1,5-a]pyrazin-1-yl)-N-(4-(trifluoromethyl)pyridin-2-yl)benzamide] | <100
12 | COC/C=C/C(=O)N1CCC[C@H]1c1nc(-c2ccc(C(=O)Nc3cc(C(C)C)ccn3)cc2)c2c(N)nccn12 [Example 58, (S,E)-4-(8-amino-3-(1-(4-methoxybut-2-enoyl)pyrrolidin-2-yl)imidazo[1,5-a]pyrazin-1-yl)-N-(4-isopropylpyridin-2-yl)benzamide] | <100
13 | C[C@H](NC(=O)c1ccnc(Cl)n1)c1nc(-c2ccc(C(=O)Nc3ccccn3)cc2)c2c(N)nccn12 [Example 105, (S)-N-(1-(8-amino-1-(4-(pyridin-2-ylcarbamoyl)phenyl)imidazo[1,5-a]pyrazin-3-yl)ethyl)-2-chloropyrimidine-4-carboxamide] | <100
14 | CC#CC(=O)N1CCC[C@H]1c1nc(-c2ccc(C(=O)Nc3ccccn3)c(F)c2)c2c(N)nccn12 [Example 50, (S)-4-(8-amino-3-(1-but-2-ynoylpyrrolidin-2-yl)imidazo[1,5-a]pyrazin-1-yl)-2-fluoro-N-(pyridin-2-yl)benzamide] | <100
15 | COCC#CC(=O)N1CCC[C@H]1c1nc(-c2ccc(C(=O)Nc3ccccn3)cc2)c2c(N)nccn12 [Example 41, (S)-4-(8-Amino-3-(1-(4-methoxybut-2-ynoyl)pyrrolidin-2-yl)imidazo[1,5-a]pyrazin-1-yl)-N-(pyridin-2-yl)benzamide] | <100
16 | Cc1cc(C(=O)Nc2ccccn2)ccc1-c1nc([C@@H]2CCCCN2C(=O)c2ccnc(Cl)n2)n2ccnc(N)c12 [Example 56, 4-(8-amino-3-((S)-1-(2-chloropyrimidine-4-carbonyl)piperidin-2-yl)imidazo[1,5-a]pyrazin-1-yl)-3-methyl-N-(pyridin-2-yl)benzamide] | <100
17 | Nc1nccn2c([C@@H]3CCCCN3C(=O)c3ccnc(Cl)n3)nc(-c3ccc(C(=O)Nc4cc(F)ccn4)cc3)c12 [Example 80, (S)-4-(8-amino-3-(1-(2-chloropyrimidine-4-carbonyl)piperidin-2-yl)imidazo[1,5-a]pyrazin-1-yl)-N-(4-fluoropyridin-2-yl)benzamide] | <100
18 | COC/C=C/C(=O)NCc1nc(-c2ccc(C(=O)Nc3ccccn3)cc2)c2c(N)nccn12 [Example 95, (E)-4-(8-amino-3-((4-methoxybut-2-enamido)methyl)imidazo[1,5-a]pyrazin-1-yl)-N-(pyridin-2-yl)benzamide] | <100
19 | Nc1nccn2c([C@@H]3CCCN3C(=O)c3ccnc(Cl)n3)nc(-c3ccc(C(=O)Nc4ccccn4)c(F)c3)c12 [Example 84, (S)-4-(8-amino-3-(1-(2-chloropyrimidine-4-carbonyl)pyrrolidin-2-yl)imidazo[1,5-a]pyrazin-1-yl)-2-fluoro-N-(pyridin-2-yl)benzamide] | <100

Same assay, conditions: 60 min pre-incubation, 5 μM ATP, bin bounds in μM

Row | SMILES | EC50 Btk activity values [nM]
20 | COC/C=C/C(=O)N1CCCC[C@H]1c1nc(-c2ccc(C(=O)Nc3ccccn3)cc2C)c2c(N)nccn12 [Example 85, 4-(8-amino-3-((S)-1-((E)-4-methoxybut-2-enoyl)piperidin-2-yl)imidazo[1,5-a]pyrazin-1-yl)-3-methyl-N-(pyridin-2-yl)benzamide] | <1000
21 | COC/C=C/C(=O)N1CCCC[C@H]1c1nc(-c2ccc(C(=O)Nc3ncccn3)cc2)c2c(N)nccn12 [Example 55, (S,E)-4-(8-amino-3-(1-(4-methoxybut-2-enoyl)piperidin-2-yl)imidazo[1,5-a]pyrazin-1-yl)-N-(pyrimidin-2-yl)benzamide] | <1000
22 | COC/C=C/C(=O)N1CCCC[C@H]1c1nc(-c2ccc(C(=O)Nc3ccon3)cc2)c2c(N)nccn12 [Example 54, (S,E)-4-(8-amino-3-(1-(4-methoxybut-2-enoyl)piperidin-2-yl)imidazo[1,5-a]pyrazin-1-yl)-N-(isoxazol-3-yl)benzamide] | <1000
23 | COC/C=C/C(=O)N1CCCC[C@H]1c1nc(-c2ccc(C(=O)Nc3ccncn3)cc2)c2c(N)nccn12 [Example 86, (S,E)-4-(8-amino-3-(1-(4-methoxybut-2-enoyl)piperidin-2-yl)imidazo[1,5-a]pyrazin-1-yl)-N-(pyrimidin-4-yl)benzamide] | <1000
24 | Nc1nccn2c([C@@H]3CCCCN3C(=O)c3ccnc(Cl)n3)nc(-c3ccc(C(=O)Nc4cccnn4)cc3)c12 [Example 74, (S)-4-(8-amino-3-(1-(2-chloropyrimidine-4-carbonyl)piperidin-2-yl)imidazo[1,5-a]pyrazin-1-yl)-N-(pyridazin-3-yl)benzamide] | <1000
25 | N#CCN1CCC[C@H]1c1nc(-c2ccc(C(=O)Nc3ccccn3)cc2)c2c(N)nccn12 [Example 94, (S)-4-(8-amino-3-(1-(cyanomethyl)pyrrolidin-2-yl)imidazo[1,5-a]pyrazin-1-yl)-N-(pyridin-2-yl)benzamide] | <1000
26 | CCCc1ccnc(NC(=O)c2ccc(-c3nc([C@@H]4CCCN4C(=O)/C=C/COC)n4ccnc(N)c34)c(C)c2)c1 [Example 87, 4-(8-amino-3-((S)-1-((E)-4-methoxybut-2-enoyl)pyrrolidin-2-yl)imidazo[1,5-a]pyrazin-1-yl)-3-methyl-N-(4-propylpyridin-2-yl)benzamide] | <1000
27 | COC/C=C/C(=O)N1CCC[C@H]1c1nc(-c2ccc(C(=O)Nc3cc(F)ccn3)cc2)c2c(N)nccn12 [Example 53, (S,E)-4-(8-amino-3-(1-(4-methoxybut-2-enoyl)pyrrolidin-2-yl)imidazo[1,5-a]pyrazin-1-yl)-N-(4-fluoropyridin-2-yl)benzamide] | <1000
28 | C=C(C(=O)N1CCC[C@H]1c1nc(-c2ccc(C(=O)Nc3ccccn3)cc2)c2c(N)nccn12)C(F)(F)F [Example 92, (S)-4-(8-amino-3-(1-(2-(trifluoromethyl)acryloyl)pyrrolidin-2-yl)imidazo[1,5-a]pyrazin-1-yl)-N-(pyridin-2-yl)benzamide] | <1000
29 | Nc1nccn2c([C@@H]3CCCCN3C(=O)c3ccnc(Cl)n3)nc(-c3ccc(C(=O)Nc4ncccn4)cc3)c12 [Example 90, (S)-4-(8-amino-3-(1-(2-chloropyrimidine-4-carbonyl)piperidin-2-yl)imidazo[1,5-a]pyrazin-1-yl)-N-(pyrimidin-2-yl)benzamide] | <1000

Reference: US10934296B2, “4-imidazopyridazin-1-yl-benzamides as Btk inhibitors” (Merck Sharp & Dohme B.V., priority 2011, dated 2021)
